Source: publication PMC9944867, “Mechanistic in vitro studies indicate that the clinical drug–drug interactions between protease inhibitors and rosuvastatin are driven by inhibition of intestinal BCRP and hepatic OATP1B1 with minimal contribution from OATP1B3, NTCP and OAT3” (Pharmacology Research & Perspectives, 2023)
“And” between values parts separate entries of the source, which are not always exact repeats. Identical values can stand only once. Like-named read-outs stand apart in the source and are kept apart here.

Key:
[1] = target: T1, human OATP1B1 (SLCO1B1) (Homo sapiens, UniProt Q9Y6L6); experiment: OATP1B1 inhibition in transporter-expressing HEK293 cells, [3H]-estradiol 17β-D-glucuronide uptake (IC50 determination); conditions: OATP1B1-mediated transport of [3H]-estradiol 17β-D-glucuronide (0.02 μM), HEK293
T1 sequence (Q9Y6L6 1-691): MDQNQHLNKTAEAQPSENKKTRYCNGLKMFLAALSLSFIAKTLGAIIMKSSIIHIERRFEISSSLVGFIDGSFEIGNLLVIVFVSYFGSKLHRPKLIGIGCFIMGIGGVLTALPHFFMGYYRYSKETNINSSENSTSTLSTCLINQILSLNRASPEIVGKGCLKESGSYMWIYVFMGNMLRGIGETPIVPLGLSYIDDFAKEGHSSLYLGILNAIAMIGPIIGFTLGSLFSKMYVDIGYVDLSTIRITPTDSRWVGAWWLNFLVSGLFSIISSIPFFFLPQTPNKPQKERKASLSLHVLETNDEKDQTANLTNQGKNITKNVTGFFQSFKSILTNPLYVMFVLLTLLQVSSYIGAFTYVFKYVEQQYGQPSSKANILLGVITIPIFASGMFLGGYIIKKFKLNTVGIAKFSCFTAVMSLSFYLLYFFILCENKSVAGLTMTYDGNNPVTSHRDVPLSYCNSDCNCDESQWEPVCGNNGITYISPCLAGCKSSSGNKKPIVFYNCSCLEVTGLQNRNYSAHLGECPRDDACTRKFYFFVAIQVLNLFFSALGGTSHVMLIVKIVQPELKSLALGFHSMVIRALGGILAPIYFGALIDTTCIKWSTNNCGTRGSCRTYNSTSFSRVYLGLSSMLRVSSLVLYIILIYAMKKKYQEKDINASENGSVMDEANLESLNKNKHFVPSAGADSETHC
Description: (§1) OATP1B1, OATP1B3, NTCP and vector control cell lines were cultured and subsequent transporter assays conducted as described above using the same transporter‐specific probe substrates and incubation times. For OATP1B1, the probe substrate was [^3H]‐estradiol 17β‐D‐glucuronide (0.02 μM) incubated for 2 min, with rifamycin SV (100 μM) as positive control inhibitor. For IC50 determinations, the only difference to the method performed above was that the 15‐min pre‐incubation step contained a range of six concentrations of protease inhibitor drug, and subsequent incubations were conducted with the same six concentration levels of drug rather than with a single concentration.

[2] = target: T2, human OATP1B3 (SLCO1B3) (Homo sapiens, UniProt Q9NPD5); experiment: OATP1B3 inhibition in transporter-expressing HEK293 cells, [3H]-estradiol 17β-D-glucuronide uptake (IC50 determination); conditions: for IC50: OATP1B3-mediated transport of [3H]-estradiol 17β-D-glucuronide (0.02 μM), HEK293
T2 sequence (Q9NPD5 1-702): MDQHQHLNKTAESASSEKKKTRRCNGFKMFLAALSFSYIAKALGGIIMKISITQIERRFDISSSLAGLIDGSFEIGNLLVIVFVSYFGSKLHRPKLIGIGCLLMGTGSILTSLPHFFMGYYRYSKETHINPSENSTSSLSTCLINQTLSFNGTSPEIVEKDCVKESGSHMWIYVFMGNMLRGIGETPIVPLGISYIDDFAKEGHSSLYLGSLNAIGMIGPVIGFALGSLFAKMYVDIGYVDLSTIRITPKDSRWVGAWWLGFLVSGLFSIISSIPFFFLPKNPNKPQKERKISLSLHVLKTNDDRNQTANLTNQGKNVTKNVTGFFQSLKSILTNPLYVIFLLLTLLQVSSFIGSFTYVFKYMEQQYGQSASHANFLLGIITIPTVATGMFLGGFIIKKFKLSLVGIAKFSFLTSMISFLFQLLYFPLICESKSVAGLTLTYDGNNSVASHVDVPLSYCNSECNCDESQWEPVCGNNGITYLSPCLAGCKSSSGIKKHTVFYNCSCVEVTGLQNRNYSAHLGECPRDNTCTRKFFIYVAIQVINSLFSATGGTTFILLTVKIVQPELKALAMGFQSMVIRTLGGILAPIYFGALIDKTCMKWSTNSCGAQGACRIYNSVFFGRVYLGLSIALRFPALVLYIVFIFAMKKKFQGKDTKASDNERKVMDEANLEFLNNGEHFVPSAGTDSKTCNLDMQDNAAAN
Description: as §1

[3] = target: T3, human NTCP (SLC10A1) (Homo sapiens, UniProt Q14973); experiment: NTCP single concentration inhibition screen in HEK293 cells; assay type: cell-based; conditions: ≥10x [Iin max u]: atazanavir 50 μM, darunavir 15 μM, lopinavir 5 μM, ritonavir 0.3 μM; [3H]-taurocholic acid 1 μM
T3 construct: host or cells: HEK293 TransportoCells
T3 sequence (Q14973 1-349): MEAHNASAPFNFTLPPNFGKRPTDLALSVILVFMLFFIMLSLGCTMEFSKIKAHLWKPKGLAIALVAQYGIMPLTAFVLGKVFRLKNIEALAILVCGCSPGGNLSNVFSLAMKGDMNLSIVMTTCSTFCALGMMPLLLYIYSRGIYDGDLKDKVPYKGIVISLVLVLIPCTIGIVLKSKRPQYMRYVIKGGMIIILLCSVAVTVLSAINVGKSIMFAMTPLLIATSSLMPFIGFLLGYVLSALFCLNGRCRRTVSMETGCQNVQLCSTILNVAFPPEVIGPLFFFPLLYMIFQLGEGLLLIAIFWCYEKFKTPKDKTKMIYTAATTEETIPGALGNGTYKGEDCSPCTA

[4] = target: T4, human OAT3 (SLC22A8) (Homo sapiens, UniProt Q8TCC7); experiment: OAT3 single concentration inhibition screen in HEK293 cells; assay type: cell-based; conditions: ≥10x unbound [Cmax]: atazanavir 15 μM, darunavir 10 μM, lopinavir 3 μM, ritonavir 0.1 μM; probe 1 μM
T4 construct: host or cells: HEK293 TransportoCells
T4 sequence (Q8TCC7 1-542): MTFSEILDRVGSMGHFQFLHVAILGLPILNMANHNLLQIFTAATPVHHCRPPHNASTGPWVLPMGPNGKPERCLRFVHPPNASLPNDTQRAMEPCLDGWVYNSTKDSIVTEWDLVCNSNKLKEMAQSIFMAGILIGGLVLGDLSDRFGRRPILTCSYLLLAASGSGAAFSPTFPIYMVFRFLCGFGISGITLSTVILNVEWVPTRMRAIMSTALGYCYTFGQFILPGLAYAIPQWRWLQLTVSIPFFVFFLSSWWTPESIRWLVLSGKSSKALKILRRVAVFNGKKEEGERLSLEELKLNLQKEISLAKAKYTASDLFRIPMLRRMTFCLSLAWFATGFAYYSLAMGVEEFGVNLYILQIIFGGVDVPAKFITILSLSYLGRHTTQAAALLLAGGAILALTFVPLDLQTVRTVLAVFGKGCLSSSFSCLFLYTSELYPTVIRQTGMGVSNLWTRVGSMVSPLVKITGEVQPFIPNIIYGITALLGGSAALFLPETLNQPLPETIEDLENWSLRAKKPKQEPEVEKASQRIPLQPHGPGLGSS

[5] = cited from earlier work; for Cmax: read-out: [Cmax] mean steady-state maximum plasma concentration, total drug; for fu fraction unbound: in plasma, ref drug label accessed via Drugs@FDA database
[6] = IC50, determined values from different occasions (OATP1B1), single occasion
[7] = IC50 mean (OATP1B1), mean (±SD) of three occasions
[8] = IC50, determined values from different occasions (OATP1B3), single occasion
[9] = IC50 mean (OATP1B3), mean (±SD) of three occasions

Structure (SMILES) | IC50 [1, 6] | IC50 [1, 7] [µM] | IC50 [2, 8] | IC50 [2, 9] [µM] | Mean OATP1B3 IC50 (Ki), fold lower than previously published ([2]; against value with atorvastatin as probe substrate [33]) [fold] | Inhibition of NTCP-mediated probe substrate transport, single concentration screen [3] | Inhibition of OAT3-mediated [3H]-estrone 3-sulfate transport, single concentration screen [4] | Cmax ([5]; clinical dose of Table 5, ref Elsby et al.[1]) [µM] | fu fraction unbound [5] | Cmax ([5]; 400 mg, ref Elsby et al.[13]) [µM]
COC(=O)N[C@H](C(=O)N[C@@H](Cc1ccccc1)[C@@H](O)CN(Cc1ccc(-c2ccccn2)cc1)NC(=O)[C@@H](NC(=O)OC)C(C)(C)C)C(C)(C)C [atazanavir] | 0.583 µM and 0.69 µM | 0.734 | 1.75 µM and 2.41 µM and 1.43 µM | 1.86 | 3.9 | produced inhibition | neither atazanavir, darunavir, lopinavir nor ritonavir inhibited OAT3 transport | 8.68 | 0.14 | 
Cc1cccc(C)c1OCC(=O)N[C@@H](Cc1ccccc1)[C@@H](O)C[C@H](Cc1ccccc1)NC(=O)[C@H](C(C)C)N1CCCNC1=O [lopinavir] | 0.291 µM and 0.207 µM and 0.162 µM | 0.22 | 5.14 µM and 5.04 µM and 4.95 µM | 5.04 ± 0.095 |  | produced inhibition | neither atazanavir, darunavir, lopinavir nor ritonavir inhibited OAT3 transport |  | 0.02 | 14.6
